The text below walks through data of patent publication US5935973A, “Heterocyclcarboxamide derivatives and their use as therapeutic agents” (Knoll Aktiengesellschaft, priority 1995, dated 1999).

The target of test [1] is T1, 5-HT1A receptors (Rattus norvegicus, UniProt P19327).
T1 construct: Hippocampal tissue from the brains of male Sprague-Dawley rats; from tissue; host or cells: rat hippocampus membranes
T1 sequence (P19327 1-422): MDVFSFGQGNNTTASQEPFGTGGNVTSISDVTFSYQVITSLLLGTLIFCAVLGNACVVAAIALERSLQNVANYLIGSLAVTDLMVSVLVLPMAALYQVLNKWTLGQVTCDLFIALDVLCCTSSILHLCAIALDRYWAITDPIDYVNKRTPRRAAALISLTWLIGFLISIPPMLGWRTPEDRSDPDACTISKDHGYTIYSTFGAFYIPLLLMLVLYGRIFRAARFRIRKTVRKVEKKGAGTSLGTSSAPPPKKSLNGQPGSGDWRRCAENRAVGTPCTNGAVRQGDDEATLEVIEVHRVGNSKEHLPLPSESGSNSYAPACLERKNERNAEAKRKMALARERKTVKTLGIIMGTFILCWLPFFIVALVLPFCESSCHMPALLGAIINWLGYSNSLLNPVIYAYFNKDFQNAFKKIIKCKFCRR
In words: inhibition of [3H]8-OH-DPAT binding to 5-HT1A receptors in rat hippocampal tissue. The following applies: rat hippocampus; for Ki: [3H]8-OH-DPAT 2 nM, 25° C., 30 min; for inhibition at 1 µM: at 10^-6 M, [3H]8-OH-DPAT, read-out: % displacement of radio ligand, 5-HT1A. The method, boiled down: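 Male Sprague-Dawley rat hippocampal membranes in 50 mM Tris-HCl, pH 7.7, with 4 mM CaCl2, 0.1% ascorbate and 10 µM pargyline were incubated 30 min at 25 °C with [3H]8-OH-DPAT (2 nM as added), then filtered. Compounds were screened at 10^-6 M (as added). Curves were run for those giving ≥50% displacement, and IC50 was converted to Ki using ligand concentration and KD.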

Test [2] deals with α1-adrenoceptors. In words: inhibition of [7-methoxy-3H]prazosin binding to α1-adrenoceptors in rat whole cortical tissue. The following applies: rat whole cortex, 30 min; for % displacement of radio ligand, α1: at 10^-6 M, [7-methoxy-3H]prazosin, 1 µM; for Ki: [7-methoxy-3H]prazosin 0.1 nM, 30° C. The method, boiled down:
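Male CD rat cortical membranes (5 mg wet tissue/tube) in 50 mM Tris-HCl pH 7.6 incubated 30 min at 30 °C with [3H]prazosin (0.1 nM as added); phentolamine 5 μM defined non-specific binding. Compounds screened at 10^-6 M; ≥50% displacers titrated 10^-11–10^-3 M. Filter-bound counts gave IC50, converted to Ki via ligand concentration and KD.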

What is called Ki is the equilibrium dissociation constant of an inhibitor or competing ligand from its target. High values mean weaker binding, low ones tighter binding. In test [1], `Nc1ncccc1C(=O)NCC1CCN(C[C@H]2COc3ccc(Cl)cc3O2)CC1` [Example 1, (S)-(-)-2-amino-N-{[1-(7-chloro-1,4-benzodioxan-2-ylmethyl)-4-piperidyl]methyl}pyridine-3-carboxamide] registered a Ki of 41.5 nM. Further, in test [2], the “% displacement of radio ligand, α1” value was 89%.

Turning to `Nc1ncccc1C(=O)NCC1CCN(C[C@H]2COc3cccc(Cl)c3O2)CC1` [Example 2, (S)-2-amino-N-{[1-(8-chloro-1,4-benzodioxan-2-ylmethyl)-4-piperidyl]methyl}-pyridine-3-carboxamide], in test [1], the inhibition at 1 µM worked out at 97%. Also, the “% displacement of radio ligand, α1” value in test [2] was 100%.

Turning to `Nc1ncccc1C(=O)NCC1CCN(C[C@H]2COc3cccc(F)c3O2)CC1` [Example 3, (S)-(-)-2-amino-N-{[1-(8-fluoro-1,4-benzodioxan-2-ylmethyl)-4-piperidyl]methyl}pyridine-3-carboxamide], the Ki was 18 nM in test [1] and 5.3 nM in test [2].

For the molecule `Nc1ncccc1C(=O)NCC1CCN(CC2COc3ccccc3O2)CC1` (stereo not drawn) [Example 4, 2-amino-N-{[1-(1,4-benzodioxan-2-ylmethyl)-4-piperidyl]methyl}pyridine-3-carboxamide], the inhibition at 1 µM in test [1] turned out to be 90%. For the same molecule, the “% displacement of radio ligand, α1” value in test [2] amounted to 89%.

With `Cc1ccc2c(c1)O[C@@H](CN1CCC(CNC(=O)c3cccnc3N)CC1)CO2` [Example 5, (S)-2-amino-N-{[1-(7-methyl-1,4-benzodioxan-2-ylmethyl)-4-piperidyl]methyl}pyridine-3-carboxamide], the Ki in test [1] is 94 nM; in test [2] it was 65 nM.

With `O=C(NCC1CCN(CC2COc3ccccc3O2)CC1)c1ccccn1` (stereo not drawn) [Example 6, N-{[1-(1,4-benzodioxan-2-ylmethyl)-4-piperidyl]methyl}pyridine-2-carboxamide], the Ki in test [1] was 27 nM; in test [2] it was 21 nM.

As to `COc1ccc2c(c1)O[C@@H](CN1CCC(CNC(=O)c3cccnc3N)CC1)CO2` [Example 7, (S)-2-amino-N{[1-(7-methoxy-1,4-benzodioxan-2-ylmethyl)-4-piperidyl]methyl}-pyridine-3-carboxamide], the results for the Ki in test [1] and in test [2] were 38 nM and 104 nM, respectively.

For `O=C(NCC1CCN(CC2COc3ccccc3O2)CC1)c1cccc2cccnc12` (stereo not drawn) [Example 8, N-{[1-(1,4-benzodioxan-2-ylmethyl)-4-piperidyl]methyl}quinoline-8-carboxamide], the Ki in test [1] was found to be 12 nM; in test [2], 8 nM.

Turning to `Cc1ncccc1C(=O)NCC1CCN(C[C@H]2COc3cccc(Cl)c3O2)CC1` [Example 9, (S)-N-{[1-(8-chloro-1,4-benzodioxan-2-ylmethyl)-4-piperidyl]methyl}-2-methylpyridine-3-carboxamide], the values for the Ki in test [1] and in test [2] were 54 nM and 20 nM, respectively.

For the molecule `Nc1ncccc1C(=O)NCC1CCN(CC2COc3ccc(F)cc3O2)CC1` (stereo not drawn) [Example 10, 2-amino-N-{[1-(7-fluoro-1,4-benzodioxan-2-ylmethyl)-4-piperidyl]methyl}pyridine-3-carboxamide], the Ki in test [1] amounted to 57 nM; in test [2] it was 140 nM.

With `COc1cccc2c1OC(CN1CCC(CNC(=O)c3cccnc3N)CC1)CO2` (stereo not drawn) [Example 11, 2-amino-N-{[1-(8-methoxy-1,4-benzodioxan-2-ylmethyl)-4-piperidyl]methyl}pyridine-3-carboxamide], the results for the Ki in test [1] and in test [2] were 19 nM and 18 nM, respectively.

With `O=C(NCC1CCN(C[C@H]2COc3ccc(Cl)cc3O2)CC1)c1ccccn1` [Example 12, (S)-N-{[1-(7-chloro-1,4-benzodioxan-2-ylmethyl)-4-piperidyl]methyl}pyridine-2-carboxamide], the Ki in test [1] amounted to 16 nM; in test [2], 132 nM.

As for `Cc1cccc2c1O[C@@H](CN1CCC(CNC(=O)c3cccnc3N)CC1)CO2` [Example 13, (S)-2-amino-N-{[1-(8-methyl-1,4-benzodioxan-2-ylmethyl)-4-piperidyl]methyl}pyridine-3-carboxamide], the Ki in test [1] amounted to 38 nM; in test [2] it was 10 nM.

Take `Cc1ccc(C(=O)NCC2CCN(C[C@H]3COc4ccc(Cl)cc4O3)CC2)c(N)n1` [Example 14, (S)-2-amino-N-{[1-(7-chloro-1,4-benzodioxan-2-ylmethyl)-4-piperidyl]methyl}-6-methylpyridine-3-carboxamide]: the inhibition constant Ki was 26 nM in test [1] and 75 nM in test [2].

Take `Nc1ncccc1C(=O)NCC1CCN(C[C@H]2COc3ccccc3O2)CC1` [Example 15, (S)-2-amino-N-{[1-(1,4-benzodioxan-2-ylmethyl)-4-piperidyl]methyl}pyridine-3-carboxamide]: the Ki in test [1] stood at 40.8 nM; in test [2], 17 nM.

Consider `Nc1ccsc1C(=O)NCC1CCN(CC2COc3ccccc3O2)CC1` (stereo not drawn) [Example 16, 3-amino-N-{[1-(1,4-benzodioxan-2-ylmethyl)-4-piperidyl]methyl}thiophene-2-carboxamide], for which the Ki in test [1] came to 63 nM; in test [2] it was 2 nM.

For the molecule `Nc1ccsc1C(=O)NCC1CCN(C[C@H]2COc3ccc(Cl)cc3O2)CC1` [Example 17, (S)-3-amino-N-{[1-(7-chloro-1,4-benzodioxan-2-ylmethyl)-4-piperidyl]methyl}thiophene-2-carboxamide], the Ki in test [1] was determined as 32 nM; in test [2] it was 70 nM.

For `Cc1ncccc1C(=O)NCC1CCN(C[C@H]2COc3ccc(Cl)cc3O2)CC1` [Example 18, (S)-N-{[1-(7-chloro-1,4-benzodioxan-2-ylmethyl)-4-piperidyl]methyl}-2-methylpyridine-3-carboxamide], the Ki in test [1] amounted to 83 nM; in test [2] it was 298 nM.

For the molecule `Nc1ncccc1C(=O)NCC1CCN(C[C@H]2COc3cccc(C(F)(F)F)c3O2)CC1` [Example 20, (S)-2-amino-N-{[1-(8-trifluoromethyl-1,4-benzodioxan-2-ylmethyl)-4-piperidyl]methyl}pyridine-3-carboxamide], the results for the Ki in test [1] and in test [2] were 41 nM and 4 nM, respectively.

As to `O=C(NCC1CCN(C[C@H]2COc3ccc(Cl)cc3O2)CC1)c1cccnc1` [Example 22, (S)-N-{[1-(7-chloro-1,4-benzodioxan-2-ylmethyl)-4-piperidyl]methyl}pyridine-3-carboxamide], the Ki amounted to 35 nM in test [1] and 172 nM in test [2].

As to `O=C(NCC1CCN(C[C@H]2COc3ccc(Cl)cc3O2)CC1)c1cccc2cccnc12` [Example 23, (S)-N-{[1-(7-chloro-1,4-benzodioxan-2-ylmethyl)-4-piperidyl]methyl}quinoline-8-carboxamide], the Ki in test [1] worked out at 70 nM; in test [2] it was 44 nM.
